Values belong to the compound of their own block, whether it stands above or below them. Activity calls are given as the source filed them. The rule behind the calls is not given here.
Assays:
[1] = target: T1, Forkhead box protein M1 (Homo sapiens) (UniProt Q08050); assay: Inhibition of FOXM1 in human ER-negative DT-22 cells at 8 uM assessed as reduction in FOXM1C expression measured by qRT-PCR method; assay type: cell-based
T1 sequence (whole entry): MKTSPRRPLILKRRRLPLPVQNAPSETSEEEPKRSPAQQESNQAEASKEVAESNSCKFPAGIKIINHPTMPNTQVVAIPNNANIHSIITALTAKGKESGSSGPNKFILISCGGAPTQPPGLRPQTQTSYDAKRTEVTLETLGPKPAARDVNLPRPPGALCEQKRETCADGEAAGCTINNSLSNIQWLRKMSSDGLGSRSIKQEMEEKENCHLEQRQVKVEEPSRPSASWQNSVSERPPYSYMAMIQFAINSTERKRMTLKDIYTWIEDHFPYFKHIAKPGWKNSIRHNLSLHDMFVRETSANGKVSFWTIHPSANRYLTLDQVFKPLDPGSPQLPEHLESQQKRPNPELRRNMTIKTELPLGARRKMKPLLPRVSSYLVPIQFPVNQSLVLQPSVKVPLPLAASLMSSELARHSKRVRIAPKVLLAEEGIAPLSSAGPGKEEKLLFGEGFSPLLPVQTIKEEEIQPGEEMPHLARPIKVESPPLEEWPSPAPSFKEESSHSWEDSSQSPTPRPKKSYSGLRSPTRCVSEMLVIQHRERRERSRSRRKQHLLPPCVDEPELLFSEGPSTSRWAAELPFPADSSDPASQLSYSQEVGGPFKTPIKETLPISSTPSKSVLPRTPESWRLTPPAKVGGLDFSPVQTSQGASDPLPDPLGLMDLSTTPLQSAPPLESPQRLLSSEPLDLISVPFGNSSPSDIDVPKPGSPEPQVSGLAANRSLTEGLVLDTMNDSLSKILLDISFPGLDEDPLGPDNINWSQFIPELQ

[2] = target: T1, Forkhead box protein M1 (Homo sapiens); assay: Inhibition of FOXM1 in human ER-positive MCF7 cells at 8 uM assessed as reduction in CCNB1 expression measured by qRT-PCR method; assay type: cell-based
[3] = target: T1, Forkhead box protein M1 (Homo sapiens); assay: Inhibition of FOXM1 in human ER-positive MCF7 cells at 8 uM assessed as reduction in PLK1 expression measured by qRT-PCR method; assay type: cell-based
[4] = target: T1, Forkhead box protein M1 (Homo sapiens); assay: Inhibition of FOXM1 in human ER-positive MCF7 cells at 8 uM assessed as reduction in FOXM1C expression measured by qRT-PCR method; assay type: cell-based
[5] = target: T1, Forkhead box protein M1 (Homo sapiens); assay: Inhibition of FOXM1 in human ER-positive MCF7 cells at 8 uM assessed as reduction in AURKB expression measured by qRT-PCR method; assay type: cell-based
[6] = target: T1, Forkhead box protein M1 (Homo sapiens); assay: Inhibition of FOXM1 in human ER-negative DT-22 cells at 8 uM assessed as increase in ATF3 expression measured by qRT-PCR method; assay type: cell-based
[7] = target: T1, Forkhead box protein M1 (Homo sapiens); assay: Inhibition of FOXM1 in human ER-negative DT-22 cells at 8 uM assessed as reduction in PLK1 expression measured by qRT-PCR method; assay type: cell-based
[8] = AUC in mouse at 20 mg/kg, sc measured by LC-MS/MS analysis; assay type: ADME, organism-based; parameters: dose 20 mg/kg; details: in vivo
[9] = Cmax in mouse at 20 mg/kg, sc measured by LC-MS/MS analysis; assay type: ADME, organism-based; parameters: route subcutaneous, dose 20 mg/kg; details: in vivo
[10] = Half-life in mouse at 20 mg/kg, sc measured by LC-MS/MS analysis; assay type: ADME, organism-based; details: in vivo
[11] = target: T1, Forkhead box protein M1 (Homo sapiens); assay: Inhibition of FOXM1 in human ER-negative DT-22 cells at 8 uM assessed as reduction in CCNB1 expression measured by qRT-PCR method; assay type: cell-based
[12] = target: T1, Forkhead box protein M1 (Homo sapiens); assay: Inhibition of FOXM1 in human ER-negative DT-22 cells at 8 uM assessed as reduction in AURKB expression measured by qRT-PCR method; assay type: cell-based
[13] = target: T1, Forkhead box protein M1 (Homo sapiens); assay: Inhibition of FOXM1 in human ER-positive MCF7 cells at 8 uM assessed as increase in ATF3 expression measured by qRT-PCR method; assay type: cell-based
[14] = Toxicity in human DT-22-Luc cells xenografted female NSG mouse assessed as as effect on body weight at 20 mg/kg, sc administered daily until day 20 and followed by 10 mg/kg every other day; assay type: organism-based; details: in vivo
[15] = Half-life in female CD-1 mouse at 40 mg/kg, sc administered as single dose and measured by LC-MS/MS analysis; assay type: ADME, organism-based; details: in vivo
DT-22 [16] = assay: Antitumor activity in human DT-22-Luc cells xenografted female NSG mouse assessed as reduction in tumor growth at 20 mg/kg, sc administered daily until day 20 and followed by 10 mg/kg every other day; assay type: functional, organism-based
[17] = AUC (0 to 48 hrs) in female CD-1 mouse at 40 mg/kg, sc administered as single dose and measured by LC-MS/MS analysis; assay type: ADME, organism-based; parameters: time < 48 hr, route subcutaneous, dose 40 mg/kg; details: in vivo
[18] = Half-life in female CD-1 mouse at 20 mg/kg, po administered as single dose and measured by LC-MS/MS analysis; assay type: ADME, organism-based; details: in vivo
MCF-7/TAMR-1 = assay: Antiproliferative activity against human MCF-7/TAMR-1 cells measured by WST-1 assay; assay type: functional, cell-based
DT-22 [19] = assay: Antitumor activity in human DT-22 cells xenografted NSG mouse assessed as reduction in tumor growth at 5 to 10 mg/kg, sc administered daily until day 21 and then every other day; assay type: functional, organism-based; details: dose 5-10 mg/kg
DT-22 [20] = assay: Antitumor activity in human DT-22 cells xenografted NSG mouse assessed as reduction in total FOXM1 expression at 5 to 10 mg/kg, sc administered daily until day 21 and then every other day; assay type: functional, organism-based; details: dose 5-10 mg/kg
DT-22 [21] = assay: Antitumor activity in human DT-22 cells xenografted NSG mouse assessed as reduction in FOXM1B expression at 5 to 10 mg/kg, sc administered daily until day 21 and then every other day; assay type: functional, organism-based; details: dose 5-10 mg/kg
DT-22 [22] = assay: Antitumor activity in human DT-22 cells xenografted NSG mouse assessed as reduction in FOXM1C expression at 5 to 10 mg/kg, sc administered daily until day 21 and then every other day; assay type: functional, organism-based; details: dose 5-10 mg/kg
DT-22 [23] = assay: Antitumor activity in human DT-22 cells xenografted NSG mouse assessed as reduction in CENPF expression at 5 to 10 mg/kg, sc administered daily until day 21 and then every other day; assay type: functional, organism-based; details: dose 5-10 mg/kg
DT-22 [24] = assay: Antitumor activity in human DT-22 cells xenografted NSG mouse assessed as reduction in tumor growth at 40 mg/kg, sc administered daily for 4 days followed by 20 mg/kg every third day until day 13 and followed by 10 mg/kg every third day; assay type: functional, organism-based; details: time 4.0 day
[25] = target: T1, Forkhead box protein M1 (Homo sapiens); assay: Inhibition of FOXM1 in human ER-negative DT-22 cells at 5 uM assessed as reduction in CCNB1 expression measured by qRT-PCR method; assay type: cell-based
[26] = target: T1, Forkhead box protein M1 (Homo sapiens); assay: Inhibition of FOXM1 in human ER-positive MCF7 cells at 5 uM assessed as reduction in FOXM1C expression measured by qRT-PCR method; assay type: cell-based
[27] = target: T1, Forkhead box protein M1 (Homo sapiens); assay: Inhibition of FOXM1 in human ER-positive MCF7 cells at 5 uM assessed as increase in ATF3 expression measured by qRT-PCR method; assay type: cell-based
[28] = target: T1, Forkhead box protein M1 (Homo sapiens); assay: Inhibition of FOXM1 in human ER-negative DT-22 cells at 5 uM assessed as reduction in AURKB expression measured by qRT-PCR method; assay type: cell-based
[29] = target: T1, Forkhead box protein M1 (Homo sapiens); assay: Inhibition of FOXM1 in human ER-positive MCF7 cells at 5 uM assessed as reduction in CCNB1 expression measured by qRT-PCR method; assay type: cell-based
[30] = target: T1, Forkhead box protein M1 (Homo sapiens); assay: Inhibition of FOXM1 in human ER-negative DT-22 cells at 5 uM assessed as reduction in FOXM1C expression measured by qRT-PCR method; assay type: cell-based
[31] = target: T1, Forkhead box protein M1 (Homo sapiens); assay: Inhibition of FOXM1 in human ER-positive MCF7 cells at 5 uM assessed as reduction in PLK1 expression measured by qRT-PCR method; assay type: cell-based
MCF7 = assay: Antitumor activity in human MCF7 cells xenografted ovariectomized NSG mouse assessed as reduction in tumor growth at 100 mg/kg, sc administered daily; assay type: functional, organism-based
DT-22 [32] = assay: Antitumor activity in human DT-22 cells xenografted NSG mouse assessed as reduction in tumor growth at 100 mg/kg, po administered daily for 7 days; assay type: functional, organism-based; details: time 7.0 day
[33] = target: T1, Forkhead box protein M1 (Homo sapiens); assay: Inhibition of FOXM1 in human ER-negative DT-22 cells at 5 uM assessed as reduction in PLK1 expression measured by qRT-PCR method; assay type: cell-based
[34] = target: T1, Forkhead box protein M1 (Homo sapiens); assay: Inhibition of FOXM1 in human ER-negative DT-22 cells at 5 uM assessed as increase in ATF3 expression measured by qRT-PCR method; assay type: cell-based
[35] = target: T1, Forkhead box protein M1 (Homo sapiens); assay: Inhibition of FOXM1 in human ER-positive MCF7 cells at 5 uM assessed as reduction in AURKB expression measured by qRT-PCR method; assay type: cell-based
[36] = Half-life in female CD-1 mouse at 60 mg/kg, sc administered as single dose and measured by LC-MS/MS analysis; assay type: ADME, organism-based; details: in vivo
[37] = Toxicity in human DT-22-Luc cells xenografted female NSG mouse assessed as as effect on body weight at 2 to 6 mg/kg, sc; assay type: organism-based; details: in vivo, dose 2-6 mg/kg
DT-22 [38] = assay: Antitumor activity in human DT-22-Luc cells xenografted female NSG mouse assessed as reduction in tumor growth at 2 to 6 mg/kg, sc; assay type: functional, organism-based; details: dose 2-6 mg/kg

inhibition [1]: Active
inhibition [2]: Active
inhibition [3]: Active
inhibition [4]: Active
inhibition [5]: Active
inhibition [6]: Active
inhibition [7]: Active
AUC [8]: 1.2 µM·h
Cmax [9]: 40 nM
half-life [10]: 21.8 h
inhibition [11]: Active
inhibition [12]: Active
inhibition [13]: Active
Structure (SMILES): Nc1c(C(=O)Nc2ccc(F)cc2)sc2nc(-c3cccs3)cc(C(F)(F)F)c12

half-life [15]: 31.5 h
Structure (SMILES): C[N+]1(CCCCCCOc2ccc(C(c3ccc(Cl)cc3)=C3C4C[C@H]5C[C@@H](C4)C[C@H]3C5)cc2)CCCC1.[I-]
Activity [14]: Non-Toxic
Activity (DT-22 [16]): Active

half-life [15]: 36.8 h
AUC(0-t) at 48 h [17]: 150 µM·h
Structure (SMILES): C[n+]1ccn(CCCCCCOc2ccc(C(=C3C4CC5CC(C4)CC3C5)c3ccc(Cl)cc3)cc2)c1.[I-]

half-life [18]: 61.8 h
Structure (SMILES): CCN(CC)CCCCCCOc1ccc(C(c2ccc(OCCCCCCN(CC)CC)cc2)=C2[C@H]3C[C@@H]4C[C@@H](C[C@H]2C4)C3)cc1

Structure (SMILES): C[N+]1(CCCCCCOc2ccc(C(c3ccc(OCCCCCC[N+]4(C)CCCCCC4)cc3)=C3C4C[C@H]5C[C@@H](C4)C[C@H]3C5)cc2)CCCCCC1
Activity (MCF-7/TAMR-1): Active
Activity (DT-22 [19]): Active
Activity (DT-22 [20]): Active
Activity (DT-22 [21]): Active
Activity (DT-22 [22]): Active
Activity (DT-22 [23]): Active
Activity (DT-22 [24]): Active

inhibition [25]: Active
inhibition [26]: Active
inhibition [27]: Active
inhibition [28]: Active
inhibition [29]: Active
inhibition [30]: Active
inhibition [31]: Active
half-life [15]: 26.7 h
inhibition [33]: Active
inhibition [34]: Active
inhibition [35]: Active
Structure (SMILES): Clc1ccc(C(=C2C3CC4CC(C3)CC2C4)c2ccc(OCCCCCCN3CCCC3)cc2)cc1
Activity (MCF7): Active
Activity (DT-22 [32]): Active

half-life [36]: 45.6 h
Structure (SMILES): CN1CCN(CCCCCCOc2ccc(C(=C3C4CC5CC(C4)CC3C5)c3ccc(OCCCCCCN4CCN(C)CC4)cc3)cc2)CC1

Structure (SMILES): C[N+]1(CCCCCCOc2ccc(C(=C3C4CC5CC(C4)CC3C5)c3ccc(OCCCCCC[N+]4(C)CCCC4)cc3)cc2)CCCC1
Activity (DT-22 [24]): Active

Structure (SMILES): C[N+]1(CCCCCCOc2ccc(C(c3ccc(OCCCCCC[N+]4(C)CCCCC4)cc3)=C3C4C[C@H]5C[C@@H](C4)C[C@H]3C5)cc2)CCCCC1
Activity (DT-22 [24]): Active

half-life [15]: 38.6 h
Structure (SMILES): CC[N+](C)(CC)CCCCCCOc1ccc(C(c2ccc(OCCCCCC[N+](C)(CC)CC)cc2)=C2C3C[C@H]4C[C@@H](C3)C[C@H]2C4)cc1.[I-].[I-]
Activity [37]: Non-Toxic
Activity (DT-22 [38]): Active
